This note sets out measurements from patent US10730875B2, “Substituted imidazo[1,2-A]pyridin-2-ylamine compounds, and pharmaceutical compositions and methods of use thereof” (JN Therapeutics, priority 2015, dated 2020).

Assay [1] has as its target human Janus kinase 2 (JAK2), recombinant catalytic domain (Homo sapiens (Human), UniProt O60674). As to the kind of experiment: LanthaScreen TR-FRET enzymatic assay, JAK2. Type of assay: biochemical. The gist of the method:
(§1)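 Insect-cell-expressed catalytic domains (JAK1 aa 866-1154, 440 ng/mL; JAK2 aa 808-1132, 11 ng/mL; JAK3 aa 781-1124, 400 ng/mL; TYK2 aa 833-1187, 200 ng/mL) preincubated 15 min with compound, then reacted 1 h at room temperature with 100 nM GFP-STAT1 and 1 mM ATP. pTyr701 detected by TR-FRET (terbium antibody); IC50 from 10-dose sigmoid fits.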

Assay [2] has as its target human Janus kinase 1 (JAK1), recombinant catalytic domain (Homo sapiens (Human), UniProt P23458). As to the kind of experiment: LanthaScreen TR-FRET enzymatic assay, JAK1. The settings on record: 1 mM ATP, GFP-STAT1 substrate, read-out: Inhibitory Activity IC50 JAK1. Type of assay: biochemical. The gist of the method: as §1
On the technique in general: In TR-FRET formats the signal depends on donor and acceptor labels being close together.

Chain of human Janus kinase 2 (JAK2), recombinant catalytic domain (O60674 808-1132): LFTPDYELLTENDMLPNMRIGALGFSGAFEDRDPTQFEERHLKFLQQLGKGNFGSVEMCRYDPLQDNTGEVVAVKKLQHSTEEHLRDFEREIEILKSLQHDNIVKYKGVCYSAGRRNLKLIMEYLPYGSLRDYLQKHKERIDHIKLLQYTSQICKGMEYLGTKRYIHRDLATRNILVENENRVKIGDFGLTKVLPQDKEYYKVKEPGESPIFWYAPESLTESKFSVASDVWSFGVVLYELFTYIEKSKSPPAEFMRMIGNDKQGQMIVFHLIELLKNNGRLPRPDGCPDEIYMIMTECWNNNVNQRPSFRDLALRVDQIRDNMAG
Chain of human Janus kinase 1 (JAK1), recombinant catalytic domain (P23458 866-1154): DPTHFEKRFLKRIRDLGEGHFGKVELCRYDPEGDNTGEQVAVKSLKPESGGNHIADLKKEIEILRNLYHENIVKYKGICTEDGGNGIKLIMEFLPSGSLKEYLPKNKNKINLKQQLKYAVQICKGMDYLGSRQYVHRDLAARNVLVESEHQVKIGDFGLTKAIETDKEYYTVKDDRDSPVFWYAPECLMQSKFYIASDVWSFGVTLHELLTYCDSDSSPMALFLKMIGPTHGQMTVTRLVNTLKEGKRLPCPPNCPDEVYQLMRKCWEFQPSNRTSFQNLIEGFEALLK

With `O=C(Nc1cn2c(-c3ccc(CN4CCS(=O)(=O)CC4)cc3F)cccc2n1)C1CC1` [Compound 14], the IC50 (usually the concentration that inhibits the measured activity by half) in assay [1] (TR-FRET, 1 mM ATP, GFP-STAT1 substrate, read-out: Inhibitory Activity IC50 JAK2) is 1000 to 5000 nM; in assay [2], no more than 500 nM. Besides, the “Selectivity JAK2/JAK1” value in assay [1] (ratio of IC50 against JAK2 over IC50 against JAK1) is on record as “A′ (A′ represents a ratio of greater than 8)”.
